Values of other authors, collected in patent US20240400784A1, “Method for Screening Solvent for Extracting Polyvinyl Chloride, Method for Recycling Waste, Recycled Polyvinyl Chloride, and Composition” (LG Chem, Ltd., priority 2021, published 2024).

Details: value in Table 1 of Document #1; swollen PVC and solvent volume based on PVC volume

Compound	PVC swelling ratio
CCCCCO [1-Pentanol]	1.02
CCCC(C)=O [2-Pentanone]	12.69
CC(=O)CC(C)C [4-Methylpentan-2-one]	7.06
c1ccccc1 [Benzene]	1.07
C1CCCCC1 [Cyclohexane]	1.04
OC1CCCCC1 [Cyclohexanol]	1.1
CCOC(C)=O [Ethyl acetate]	2.38
Water	1
